# From paper PMC11695783 (Frontiers in Pharmacology, 2024)
# Where “and” joins values, the source holds several entries; their conditions need not be identical. Equal entries are not always repeated. Where two headings read alike, the source gives them in different places.
# How the values were obtained:
# TNF-α = TNF-α in BALF of M. pneumoniae-infected mice (ELISA); format: in vivo, BALB/c mice; conditions: for TNF-α in BALF (AV): group AV; for TNF-α in BALF: individual mice
# Method: (§1) Adult BALB/c mice (20–22 g) were divided into a control group, a positive group, and compound 16C groups at low (20 mg/kg), medium (40 mg/kg), and high-dose (80 mg/kg) levels and oral and intramuscular tiamulin treatment groups (40 mg/kg). We formulated the above dose range based on the dose at which tiamulin was approved for injection (10–20 mg/kg) and the dose previously reported (45 mg/kg) ([EMA, 1999]; [Xiao et al., 2016]). In summary, we selected similar doses for compound 16C in vivo study. 40 mg/kg was used as an intermediate value, one-half of it as a low dose, and two times of it as a high dose. To prepare the challenge solution, logarithmic phase culture suspensions were centrifuged at 1700 g for 10 min, and the pellets were suspended in sterile PBS to obtain 1 × 10^9 CFU/mL. Before the challenge, mice were anesthetized with tribromoethanol (250 mg/kg, IP). Mice in the control groups were intratracheally inoculated with sterile PBS, whereas mice in the other groups were intratracheally challenged with 50 μL (1 × 10^9 CFU/mL) M. pneumoniae suspension once a day for 3 days. Compound 16C and tiamulin (tiamulin-IM group) dissolved using the method mentioned in pharmacokinetic studies, and the tiamulin fumarate soluble powder was dissolved in ddH2O for oral administration. After the final challenge, antibiotics were administered at low, medium, and high-dose levels (see above) at 10 a.m. and 10 p.m. daily for 4 consecutive days. Normal saline containing 5% DMSO and 5% Tween-80 was administered as control and positive groups by thigh intramuscular injection. To compare the efficacy of compound 16C and tiamulin under the same route of administration, we used the original tiamulin for intramuscular administration in the same formulation. On the other hand, tiamulin fumarate soluble powder, approved for oral administration to treat animal mycoplasma diseases in China, was administered to mice by gavage. Based on a clinical study of lefamulin in community-acquired bacterial pneumonia (CABP), subjects were administered twice a day and the 96 ± 24 h of starting treatment was an essential point for early clinical response (ECR) ([Paukner et al., 2022]). We therefore stopped treatment at 96 h and sampled at 192 h to explore whether the disease worsened after cessation of treatment. Bronchoalveolar lavage fluid (BALF) and lungs were collected at 0, 96, 192 h (Samples of 0 h were collected before starting treatment, and mice were fed ad libitum without drug treatment during 96–192 h) after the first dose, BALF for cytokine and cytological analysis and lung for histopathological evaluation.
# Bronchoalveolar lavage was performed according to a standardized method ([Van Hoecke et al., 2017]). BALF was obtained following infusion of 0.5 mL PBS via tracheal cannulation into the lung twice (total 1 mL), and 200 µL was used for mycoplasma counts. The remaining BALF was centrifuged at 300 g for 10 min to separate the debris. The supernatants were stored at −80°C, and the debris was resuspended in the same volume of PBS containing red blood cell lysis buffer. A hemocytometer was used to count total cell numbers in BALF, and cell smears (Diff-Quik staining) were prepared to calculate the percentages of neutrophils, macrophages, and lymphocytes. IFN-γ, TNF-α, and CXCL1 levels in BALF samples were assessed using commercial ELISA kits using guidelines recommended by the manufacturer (Elabscience, Wuhan, China). Parallel data for each experimental group at each time point were obtained from six different mice.
# [1] = system: Mycoplasma pneumoniae strain M129 (ATCC 29342); test: Susceptibility assay (broth microdilution MIC, MBC); format: cell-based; conditions: for MBC: M. pneumoniae strain M129; for MIC: M. pneumoniae strain M129, ≈96 h
# Method: Mycoplasma pneumoniae strain M129 (ATCC 29342) was obtained from American Type Culture Collection (Manassas, VA, United States) and cultured at 37°C in the presence of 5% CO2 in the modified SP-4 liquid medium (pH 7.4) containing 2.1% (w/v) CM1166 mycoplasma broth base medium (Oxoid, Hants, United Kingdom), 20% (v/v) fetal bovine serum (FBS, Bioexplorer, CO, United States), 0.4% yeast extract (Oxoid), 0.55% (w/v) CMRL 1066 w/L-glutamine culture media powder (MyBioSource, San Diego, CA, United States), 1% D-glucose (Macklin) and 0.004% phenol red (Macklin). […] The solid medium is based on the above formula with the addition of 1% agar, and the characteristic fried egg-like colonies were used for experiments following incubation for 7 d on plates.
# The broth microdilution MIC procedure was performed according to standardized methods for microdilution susceptibility testing of mycoplasma species ([Waites et al., 2012]). […] The concentration of organisms should be determined to approximately 10^6 CFU/mL prior to inoculation into 96-well plates. Due to the action of phenol red, the acidic metabolites of microbial growth can turn the medium yellow. […] The MBC assays were performed based on MICs following endpoint reading and the liquid in the high-concentration wells was removed for bacterial counting.
# [2] = system: Mycoplasma pneumoniae-infected mice (lung tissue); test: Histopathological assessment of lung tissue (HPS, response and recovery rates) in M. pneumoniae-infected mice; format: in vivo, BALB/c mice; parameters: HPS value (mean) / HPS: scale not given here; conditions: for HPS: individual mice
# Method: as §1
# Lung tissues were collected at 0, 96, and 192 h following drug administration. Lungs were collected from 6 mice in each group at 96 h and 13–15 mice in each group at 192 h. In addition, the lungs of 8 untreated infected mice were taken at 0 h as initial controls. Lung tissues were fixed in 4% paraformaldehyde, and whole-mount sections of paraffin-embedded lungs were stained with hematoxylin and eosin (H&E). The histopathologic score (HPS) was determined according to published protocols by a single pathologist who was unaware of the treatment status and groups of the animals ([Cimolai et al., 1992]). The HPS was based on individual grading of peribronchiolar/bronchial infiltrate, bronchiolar/bronchial luminal exudate, perivascular infiltrate, and parenchymal pneumoniae.
# [3] = compound 16C 20 mg/kg IM, 192 h
# [4] = compound 16C 40 mg/kg IM, 192 h
# [5] = compound 16C 80 mg/kg IM, 192 h
# [6] = M. pneumoniae-infected mice, 20mg/kg, intramuscular, n=13-15
# [7] = M. pneumoniae-infected mice, 40mg/kg, intramuscular, n=13-15
# [8] = M. pneumoniae-infected mice, 80mg/kg, intramuscular, n=13-15
# [9] = compound 16C 40 mg/kg IM, from HPS at 192 h
# [10] = compound 16C 80 mg/kg IM, from HPS at 192 h
# [11] = tiamulin 40 mg/kg IM, 96 h, listed as Tiamulin-IM
# [12] = M. pneumoniae-infected mice, IM, n=13-15
# [13] = M. pneumoniae-infected mice, PO, n=13-15
# [14] = tiamulin 40 mg/kg IM, from HPS at 192 h
smiles,measurement,setting,value
"C=CC1(C)CC(OC(=O)CSc2ccc(NC(=O)Cc3ccc([N+](=O)[O-])cc3)cc2)C2(C)C(C)CCC3(CCC(=O)C32)C(C)C1O (stereo not drawn) [compound 16C, 22–((4-((4-nitrophenyl)acetamido)phenyl)thio)deoxypleuromutilin]",TNF-α in BALF (AV),"TNF-α; compound 16C 20 mg/kg IM, 96 h",60.6586 pg/mL
same,TNF-α in BALF,"TNF-α; compound 16C 20 mg/kg IM, 96 h",156.929 pg/mL and 49.4117 pg/mL and 56.9942 pg/mL and 23.2695 pg/mL and 42.5167 pg/mL and 34.8302 pg/mL
same,TNF-α in BALF (AV),TNF-α; [3],1.835 pg/mL
same,TNF-α in BALF,TNF-α; [3],1.8363 pg/mL and 1.566 pg/mL and 2.372 pg/mL and 2.105 pg/mL and 1.293 pg/mL
same,TNF-α in BALF (AV),"TNF-α; compound 16C 40 mg/kg IM, 96 h",10.1817 pg/mL
same,TNF-α in BALF,"TNF-α; compound 16C 40 mg/kg IM, 96 h",13.0051 pg/mL and 8.3889 pg/mL and 8.57 pg/mL and 9.454 pg/mL and 9.28 pg/mL and 12.3919 pg/mL
same,TNF-α in BALF (AV),TNF-α; [4],8.528 pg/mL
same,TNF-α in BALF,TNF-α; [4],8.021 pg/mL and 8.206 pg/mL and 7.835 pg/mL and 9.798 pg/mL and 9.105 pg/mL
same,TNF-α in BALF (AV),"TNF-α; compound 16C 80 mg/kg IM, 96 h",10.9013 pg/mL
same,TNF-α in BALF,"TNF-α; compound 16C 80 mg/kg IM, 96 h",5.596 pg/mL and 10.365 pg/mL and 13.376 pg/mL and 12.1685 pg/mL and 14.3215 pg/mL and 9.581 pg/mL
same,TNF-α in BALF (AV),TNF-α; [5],10.3825 pg/mL
same,TNF-α in BALF,TNF-α; [5],8.923 pg/mL and 7.924 pg/mL and 10.8189 pg/mL and 12.996 pg/mL and 10.1697 pg/mL and 11.4637 pg/mL
same,MBC,[1],7.812 ng/mL
same,MIC,[1],1.953 ng/mL
same,Recovery,[2]; [6],20.00%
same,Response,[2]; [6],93.33%
same,Recovery,[2]; [7],35.7%
same,Response,[2]; [7],100%
same,Recovery,[2]; [8],50%
same,Response,[2]; [8],100%
same,HPS value (mean),"[2]; compound 16C 20 mg/kg IM, 96 h",1.08
same,HPS,"[2]; compound 16C 20 mg/kg IM, 96 h",0.5 and 1 and 1.5
same,HPS value (mean),[2]; [3],1
same,HPS,[2]; [3],1 and 0 and 4 and 0.5 and 1.5
same,Recovery,"[2]; compound 16C 20 mg/kg IM, from HPS at 192 h (HPS reduced to 0)",20.00%
same,Recovery,"[2]; compound 16C 20 mg/kg IM, from HPS at 192 h (HPS reduced to 0), listed as Compound16C",20%
same,Response,"[2]; compound 16C 20 mg/kg IM, from HPS at 192 h, n = 13–15",93.33%
same,HPS value (mean),"[2]; compound 16C 40 mg/kg IM, 96 h",1
same,HPS,"[2]; compound 16C 40 mg/kg IM, 96 h",1 and 1.5 and 0
same,HPS value (mean),[2]; [4],0.46
same,HPS,[2]; [4],0.5 and 0 and 2 and 1
same,Recovery,[2]; [9],35.7%
same,Response,[2]; [9],100%
same,HPS value (mean),"[2]; compound 16C 80 mg/kg IM, 96 h",0.75
same,HPS,"[2]; compound 16C 80 mg/kg IM, 96 h",0.5 and 0 and 1
same,HPS value (mean),[2]; [5],0.43
same,HPS,[2]; [5],0 and 0.5 and 1 and 1.5
same,Recovery,[2]; [10],50%
same,Response,[2]; [10],100%
"C=C[C@]1(C)C[C@@H](OC(=O)CSCCN(CC)CC)[C@]2(C)[C@H](C)CC[C@]3(CCC(=O)[C@H]32)[C@@H](C)[C@@H]1O [tiamulin, Tiamulin, reference compound]",TNF-α in BALF (AV),TNF-α; [11],25.628 pg/mL
same,TNF-α in BALF (AV),"TNF-α; tiamulin 40 mg/kg IM, 96 h, listed as TiamulinIM",25.4267 pg/mL
same,TNF-α in BALF,TNF-α; [11],36.6513 pg/mL and 20.2192 pg/mL and 19.4095 pg/mL and 27.905 pg/mL and 23.325 pg/mL and 26.258 pg/mL
same,TNF-α in BALF (AV),"TNF-α; tiamulin 40 mg/kg IM, 192 h",10.6403 pg/mL
same,TNF-α in BALF,"TNF-α; tiamulin 40 mg/kg IM, 192 h, listed as Tiamulin-IM",0.9088 pg/mL and 8.569 pg/mL and 21.5375 pg/mL and 21.2768 pg/mL
same,TNF-α in BALF (AV),"TNF-α; tiamulin 40 mg/kg PO (fumarate soluble powder), 96 h",17.9906 pg/mL
same,TNF-α in BALF (AV),"TNF-α; tiamulin 40 mg/kg PO (fumarate soluble powder), 192 h",9.318 pg/mL
same,MIC,[1]; read-out: MIC,7.81 ng/mL
same,MBC,[1]; read-out: MBC,62.5 ng/mL
same,Recovery,[2]; [12],35.7%
same,Response,[2]; [12],100%
same,Recovery,[2]; [13],6.67%
same,Response,[2]; [13],86.67%
same,HPS value (mean),"[2]; tiamulin 40 mg/kg IM, 96 h",1
same,HPS,"[2]; tiamulin 40 mg/kg IM, 96h, listed as TiamulinIM",2.5 and 0.5 and 1
same,HPS,"[2]; tiamulin 40 mg/kg IM, 192h, listed as TiamulinIM",0.5 and 0 and 1
same,Recovery,[2]; [14],35.7%
same,Response,[2]; [14],100%
